Assay results taken from patent US8748624B2, “Picolinamido-propanoic acid derivatives useful as glucagon receptor antagonists” (Janssen Pharmaceutica NV, priority 2011, dated 2014).

Tests used:
[1] = biological target: human glucagon receptor (GCGR) (Homo sapiens (Human), UniProt P47871); experiment: Inhibition of 125I-glucagon binding to membranes from HEK293 cells expressing the human glucagon receptor; details: membranes of hGluc-1 HEK cells, 125I-glucagon 0.3 nM, 2 hours room temperature; IC50 converted to Ki; average if tested more than once
How it was run: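 Compound displacement of ¹²⁵I-glucagon (0.3 nM) was run for 2 h at room temperature in 50 mM HEPES pH 7.4 with 5 mM MgCl2, 1 mM CaCl2 and 0.2% BSA, using 6 μg/well membranes from stably transfected hGCGR HEK293 cells. Filter-bound counts gave IC50s, expressed as Ki.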

human GCGR = human GCGR (Homo sapiens (Human), UniProt P47871); experiment: Cellular functional assay, cAMP readout (glucagon-stimulated cAMP in HEK293 cells expressing human GCGR); assay type: cell-based; details: hGluc-1 HEK cells, LANCE TR-FRET, IC50 converted to Ki, average if tested more than once
How it was run: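 HEK293 cells stably transfected with full-length human GCGR were exposed to compound for 30 min before a 5-min challenge with […] (final) glucagon. Readout was TR-FRET (LANCE) cAMP versus standard curve; IC50s fitted by non-linear regression and converted to Ki values.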

Sequence of human GCGR (P47871 26-477): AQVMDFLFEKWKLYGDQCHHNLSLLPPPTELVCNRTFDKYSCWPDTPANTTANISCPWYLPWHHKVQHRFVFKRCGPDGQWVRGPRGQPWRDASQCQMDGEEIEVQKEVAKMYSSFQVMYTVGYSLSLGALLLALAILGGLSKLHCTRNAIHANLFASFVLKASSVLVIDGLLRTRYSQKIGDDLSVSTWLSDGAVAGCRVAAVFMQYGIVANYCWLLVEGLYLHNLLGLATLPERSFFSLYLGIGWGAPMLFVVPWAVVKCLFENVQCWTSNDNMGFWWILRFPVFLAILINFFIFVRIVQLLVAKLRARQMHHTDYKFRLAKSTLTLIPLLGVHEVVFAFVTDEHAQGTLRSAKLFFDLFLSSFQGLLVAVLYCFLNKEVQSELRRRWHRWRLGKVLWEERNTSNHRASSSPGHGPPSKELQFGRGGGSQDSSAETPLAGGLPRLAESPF
Sequence of human glucagon receptor (GCGR) (P47871 26-477): as above

SMILES | Ki [1] [µM] | Ki (human GCGR) [µM]
COc1ccc(-c2ccc(NCc3ccc(Cl)cc3-c3ccc(C(=O)NCCC(=O)O)nc3)cc2)c(Cl)c1 [Compound 143, 3-(5-(5-chloro-2-(((2′-chloro-4′-methoxy-[1,1′-biphenyl]-4-yl)amino)methyl)phenyl)picolinamido)propanoic acid] | 0.0282 | 0.106
N#Cc1cc(NCc2cc(F)c(F)cc2-c2ccc(C(=O)NCCC(=O)O)nc2)ccc1-c1ccc(Cl)c(C(F)(F)F)c1 [Compound 113, 3-(5-(2-(((4′-chloro-2-cyano-3′-(trifluoromethyl)-[1,1′-biphenyl]-4-yl)amino)methyl)-4,5-difluorophenyl)picolinamido)propanoic acid] | 0.0583 | 0.65
O=C(O)CCNC(=O)c1ccc(-c2cc(Cl)ccc2CNc2ccc(-c3ccc(F)cc3F)c(F)c2)cn1 [Compound 89, 3-(5-(5-chloro-2-(((2,2′,4′-trifluoro-[1,1′-biphenyl]-4-yl)amino)methyl)phenyl)picolinamido)propanoic acid] | 0.0606 | 0.55
O=C(O)CCNC(=O)c1ccc(-c2cc(F)c(F)cc2C(=O)Nc2ccc(-c3ccc(C(F)(F)F)cc3)cc2)cn1 [Compound 96, 3-(5-(4,5-difluoro-2-((4′-(trifluoromethyl)-[1,1′-biphenyl]-4-yl)carbamoyl)phenyl)picolinamido)propanoic acid] | 0.0338 | 0.176

Stronger by Ki [1], values ahead:

Ki [1] [µM] | Ki (human GCGR) [µM] | SMILES
0.0239 | 0.0849 | O=C(O)CCNC(=O)c1ccc(-c2cc(F)c(F)cc2CNc2ccc(-c3ccc(Cl)cc3Cl)c(Cl)c2)cn1 [Compound 108, 3-(5-(4,5-difluoro-2-(((2,2′,4′-trichloro-[1,1′-biphenyl]-4-yl)amino)methyl)phenyl)picolinamido)propanoic acid]
0.0195 | 0.0037 | Cc1cc(Cl)ccc1-c1ccc(NCc2c(Cl)cc(C(F)(F)F)cc2-c2ccc(C(=O)NCCC(=O)O)nc2)cc1 [Compound 73, 3-(5-(3-chloro-2-(((4′-chloro-2′-methyl-[1,1′-biphenyl]-4-yl)amino)methyl)-5-(trifluoromethyl)phenyl)picolinamido)propanoic acid]
